Assay: molar heat capacity at constant pressure
Conditions: 101.33 kPa, Crystal, DSC

CSCCC(N)C(=O)O (racemic) [DL-2-amino-4-(methylthio)butanoic acid]
Conditions	molar heat capacity at constant pressure [J/K/mol]
208.72 K	145.39
210.22 K	145.59
211.72 K	146.57
213.72 K	147.97
216.22 K	150.38
218.22 K	152.14
221.72 K	155.91
224.22 K	157.49
226.72 K	159.11
227.22 K	159.42
230.22 K	161.3
233.22 K	162.93
236.22 K	164.63
239.22 K	166.6
243.22 K	168.79
247.22 K	170.83
252.22 K	173.41
256.72 K	176.16
260.72 K	178.94
264.22 K	181.37
268.72 K	184.35
271.22 K	184.84
273.22 K	187.3
276.72 K	190.45
279.72 K	192.56
283.22 K	194.93
287.22 K	196.84
291.72 K	199.53
292.22 K	199.85
293.22 K	200.43
294.22 K	201.59
295.22 K	202.47
297.72 K	205.07
298.15 K	205.16
298.22 K	205.65
298.72 K	205.99
301.72 K	208.47
303.72 K	209.85
305.72 K	211.52
307.72 K	212.85
310.22 K	214.89
314.22 K	218.21
318.22 K	222.26
321.22 K	225.76

O=C(O)c1ccccc1 [benzoic acid]
Conditions	molar heat capacity at constant pressure [J/K/mol]
208.72 K	104.86
210.22 K	105.69
211.72 K	106.52
213.72 K	107.61
216.22 K	108.96
218.22 K	110.02
221.72 K	111.86
224.22 K	113.15
226.72 K	114.43
227.22 K	114.68
230.22 K	116.19
233.22 K	117.68
236.22 K	119.14
239.22 K	120.59
243.22 K	122.5
247.22 K	124.38
252.22 K	126.69
256.72 K	128.74
260.72 K	130.54
264.22 K	132.1
268.72 K	134.09
271.22 K	135.19
273.22 K	136.06
276.72 K	137.59
279.72 K	138.9
283.22 K	140.41
287.22 K	142.15
291.72 K	144.1
292.22 K	144.31
293.22 K	144.75
294.22 K	145.18
295.22 K	145.61
297.72 K	146.7
298.15 K	146.89
298.22 K	146.92
298.72 K	147.13
301.72 K	148.44
303.72 K	149.32
305.72 K	150.19
307.72 K	151.07
310.22 K	152.18
314.22 K	153.96
318.22 K	155.75
321.22 K	157.11

Source: the NIST ThermoML archive (doi:10.1016/j.jct.2019.04.006)
